Patent publication US9695155B2, “Herbicidal substituted pyrimidinyloxy benzene compounds” (E. I. DU PONT DE NEMOURS AND COMPANY, priority 2013, dated 2017)

Legend:
barnyardgrass [1] = experiment: Test A preemergence; type: in vivo, Echinochloa crus-galli
In short: (§1)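 Visual 0–100 rating (100 = complete control) taken about 10 d post-treatment relative to untreated checks. Preemergence: directed soil spray on sown loam/sand pots. Postemergence: seedlings 2–10 cm, 1–2 leaf. Non-phytotoxic solvent formulation with surfactant.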

large (Lg) crabgrass [2] = experiment: Test A preemergence; type: in vivo, Digitaria sanguinalis
In short: as §1

giant foxtail [3] = experiment: Test A preemergence; type: in vivo, Setaria faberii
In short: as §1

morningglory [4] = experiment: Test A preemergence; type: in vivo, Ipomoea spp.
In short: as §1

pigweed [5] = experiment: Test A preemergence; type: in vivo, Amaranthus retroflexus
In short: as §1

velvetleaf [6] = experiment: Test A preemergence; type: in vivo, Abutilon theophrasti
In short: as §1

wheat [7] = experiment: Test A preemergence; type: in vivo, Triticum aestivum
In short: as §1

corn [8] = experiment: Test A preemergence; type: in vivo, Zea mays
In short: as §1

barnyardgrass [9] = experiment: Test A postemergence; type: in vivo, Echinochloa crus-galli
In short: as §1

large (Lg) crabgrass [10] = experiment: Test A postemergence; type: in vivo, Digitaria sanguinalis
In short: as §1

giant foxtail [11] = experiment: Test A postemergence; type: in vivo, Setaria faberii
In short: as §1

morningglory [12] = experiment: Test A postemergence; type: in vivo, Ipomoea spp.
In short: as §1

pigweed [13] = experiment: Test A postemergence; type: in vivo, Amaranthus retroflexus
In short: as §1

velvetleaf [14] = experiment: Test A postemergence; type: in vivo, Abutilon theophrasti
In short: as §1

wheat [15] = experiment: Test A postemergence; type: in vivo, Triticum aestivum
In short: as §1

corn [16] = experiment: Test A postemergence; type: in vivo, Zea mays
In short: as §1

rice = experiment: Test B flooded paddy test; type: in vivo, Oryza sativa; conditions: Flood, 250 g ai/ha; 0 to 100 scale where 0 is no effect and 100 is complete control
Experimental: (§2) Plant species in the flooded paddy test selected from rice (Oryza sativa), sedge, umbrella (small-flower umbrella sedge, Cyperus difformis), (Heteranthera limosa), and barnyardgrass (Echinochloa crus-galli) were grown to the 2-leaf stage for testing. At time of treatment, test pots were flooded to 3 cm above the soil surface, treated by application of test compounds directly to the paddy water, and then maintained at that water depth for the duration of the test. Treated plants and controls were maintained in a greenhouse for 13 to 15 days, after which time all species were compared to controls and visually evaluated. Plant response ratings, summarized in Table B, are based on a scale of 0 to 100 where 0 is no effect and 100 is complete control. A dash (-) response means no test result.

sedge, umbrella = experiment: Test B flooded paddy test; type: in vivo, Cyperus difformis; conditions: Flood, 250 g ai/ha; 0 to 100 scale where 0 is no effect and 100 is complete control
Experimental: as §2

Heteranthera limosa = experiment: Test B flooded paddy test; type: in vivo; conditions: Flood, 250 g ai/ha; 0 to 100 scale where 0 is no effect and 100 is complete control
Experimental: as §2

barnyardgrass [17] = experiment: Test B flooded paddy test; type: in vivo, Echinochloa crus-galli; conditions: Flood, 250 g ai/ha; 0 to 100 scale where 0 is no effect and 100 is complete control
Experimental: as §2

[18] = 125 g ai/ha, 0 to 100 scale where 0 is no effect and 100 is complete control
[19] = 500 g ai/ha, 0 to 100 scale, 0 no effect, 100 complete control, approx. 10 days
[20] = 500 g ai/ha, 0 to 100 scale, 0 no effect, 100 complete control

| SMILES | Barnyardgrass plant response rating (barnyardgrass [1]; [19]) | Crabgrass, Large plant response rating (large (Lg) crabgrass [2]; [19]) | Foxtail, Giant plant response rating (giant foxtail [3]; [19]) | Morningglory plant response rating (morningglory [4]; [19]) | Pigweed plant response rating (pigweed [5]; [19]) | Velvetleaf plant response rating (velvetleaf [6]; [19]) | Wheat plant response rating (wheat [7]; [19]) | Corn plant response rating (corn [8]; [19]) | Plant response rating, Barnyardgrass (barnyardgrass [9]; [18]) | Plant response rating, Barnyardgrass (barnyardgrass [9]; [20]) | Plant response rating, Crabgrass, Large (large (Lg) crabgrass [10]; [18]) | Plant response rating, Crabgrass, Large (large (Lg) crabgrass [10]; [20]) | Plant response rating, Foxtail, Giant (giant foxtail [11]; [18]) | Plant response rating, Foxtail, Giant (giant foxtail [11]; [20]) | Plant response rating, Morningglory (morningglory [12]; [18]) | Plant response rating, Morningglory (morningglory [12]; [20]) | Plant response rating, Pigweed (pigweed [13]; [18]) | Plant response rating, Pigweed (pigweed [13]; [20]) | Plant response rating, Velvetleaf (velvetleaf [14]; [18]) | Plant response rating, Velvetleaf (velvetleaf [14]; [20]) | also measured |
| --- | --- | --- | --- | --- | --- | --- | --- | --- | --- | --- | --- | --- | --- | --- | --- | --- | --- | --- | --- | --- | --- |
| COc1ccc(Oc2ncc(Cl)cn2)c(-n2cc(Br)cn2)c1 [Compound 42] | 10 | 30 | 20 | 0 | 20 | 60 | 0 | 0 | 0 | 0 | 10 | 50 | 0 | 30 | 20 | 40 | 0 | 30 | 60 | 70 | Plant response rating, Barnyardgrass (barnyardgrass [1]; [18]): 0; Plant response rating, Crabgrass, Large (large (Lg) crabgrass [2]; [18]): 10; Plant response rating, Foxtail, Giant (giant foxtail [3]; [18]): 10; Plant response rating, Morningglory (morningglory [4]; [18]): 0; Plant response rating, Pigweed (pigweed [5]; [18]): 0; Plant response rating, Velvetleaf (velvetleaf [6]; [18]): 60; Plant response rating, Wheat (wheat [7]; [18]): 0; Plant response rating, Corn (corn [8]; [18]): 0; Plant response rating, Wheat (wheat [15]; [18]): 0; Plant response rating, Wheat (wheat [15]; [20]): 0; Plant response rating, Corn (corn [16]; [18]): 0; Plant response rating, Corn (corn [16]; [20]): 0; Plant response rating, Rice (rice): 15; Plant response rating, Sedge, Umbrella (sedge, umbrella): 0; Plant response rating, Ducksalad (Heteranthera limosa): 45; Plant response rating, Barnyardgrass (barnyardgrass [17]): 0 |
| FC(F)(F)c1cnc(Oc2ccccc2-n2cc(Cl)cn2)nc1 [Compound 6] | 90 | 100 | 100 | 10 | 100 | 100 | 30 | 20 | 40 | 100 | 50 | 100 | 80 | 100 | 40 | 70 | 100 | 100 | 100 | 100 | Barnyardgrass plant response rating (barnyardgrass [1]; [18]): 20; Crabgrass, Large plant response rating (large (Lg) crabgrass [2]; [18]): 90; Foxtail, Giant plant response rating (giant foxtail [3]; [18]): 90; Morningglory plant response rating (morningglory [4]; [18]): 0; Pigweed plant response rating (pigweed [5]; [18]): 100; Velvetleaf plant response rating (velvetleaf [6]; [18]): 100; Wheat plant response rating (wheat [7]; [18]): 0; Corn plant response rating (corn [8]; [18]): 0; Plant response rating, Wheat (wheat [15]; [18]): 40; Plant response rating, Wheat (wheat [15]; [20]): 90; Plant response rating, Corn (corn [16]; [18]): 20; Plant response rating, Corn (corn [16]; [20]): 60; Plant response rating, Rice (rice): 15; Plant response rating, Sedge, Umbrella (sedge, umbrella): 55; Plant response rating, Ducksalad (Heteranthera limosa): 65; Plant response rating, Barnyardgrass (barnyardgrass [17]): 0 |
| O=Cc1cccc(Oc2ncc(Cl)cn2)c1-n1cc(Br)cn1 [Compound 61] | 20 | 20 | 0 | 0 | 30 | 0 | 0 | 0 | 0 | 0 | 0 | 0 | 0 | 0 | 0 | 0 | 0 | 0 | 20 | 30 | Plant response rating, Barnyardgrass (barnyardgrass [1]; [18]): 0; Plant response rating, Crabgrass, Large (large (Lg) crabgrass [2]; [18]): 0; Plant response rating, Foxtail, Giant (giant foxtail [3]; [18]): 0; Plant response rating, Morningglory (morningglory [4]; [18]): 0; Plant response rating, Pigweed (pigweed [5]; [18]): 0; Plant response rating, Velvetleaf (velvetleaf [6]; [18]): 0; Plant response rating, Wheat (wheat [7]; [18]): 0; Plant response rating, Corn (corn [8]; [18]): 0; Plant response rating, Wheat (wheat [15]; [18]): 0; Plant response rating, Wheat (wheat [15]; [20]): 0; Plant response rating, Corn (corn [16]; [18]): 0; Plant response rating, Corn (corn [16]; [20]): 0; Plant response rating, Rice (rice): 0; Plant response rating, Sedge, Umbrella (sedge, umbrella): 0; Plant response rating, Ducksalad (Heteranthera limosa): 0; Plant response rating, Barnyardgrass (barnyardgrass [17]): 0 |
